Results published in ChEMBL document CHEMBL5360653, “Marine Alkaloid Lepadins E and H Induce Ferroptosis for Cancer Chemotherapy” (J Med Chem, 2023).
pIC50: −log10 of the molar value. Calls of active or inactive are those of the source. No cut-off for these calls is given here.

Columns and labels:
B16-F10 [1] = assay: Cytotoxicity against mouse B16-F10 cells incubated for 72 hrs by MTT assay; format: functional, cell-based; details: B16-F10, 72 h
HeLa [2] = assay: Induction of ferroptosis in human HeLa cells assessed as increase in density of mitochondrial membrane measured at 6 uM for 24 hrs by transmission electron microscopic analysis; format: functional, cell-based
[3] = Toxicity in immunocompetent C57BL/6J mouse allografted with B16-F10 cells assessed as tissue damage in spleen administered at 30 mg/kg, ip daily for 14 days by hematoxylin and eosin staining analysis; format: organism-based; details: in vivo, 336 h, time 14 day
HeLa [4] = assay: Induction of apoptosis in human HeLa cells assessed as late apoptotic cells incubated at 8 uM for 24 hrs measured by annexin V-PI staining based FITC analysis (reference value: 1.81%); format: functional
[5] = Toxicity in immunocompetent C57BL/6J mouse allografted with B16-F10 cells assessed as change of organ index in liver administered at 30 mg/kg, ip daily for 14 days by hematoxylin and eosin staining analysis; format: organism-based; details: in vivo, 336 h, time 14 day
HeLa [6] = assay: Induction of apoptosis in human HeLa cells assessed as necrotic cells incubated at 4 uM for 24 hrs measured by annexin V-PI staining based FITC analysis (reference value: 0.70%); format: functional
HeLa [7] = assay: Induction of ferroptosis in human HeLa cells assessed as downregulation of GPX4 level measured at 4 to 10 uM for 24 hrs by Western blotting analysis; format: functional, cell-based; details: dose 4-10 µM
HeLa [8] = assay: Induction of ferroptosis in human HeLa cells assessed as downregulation of SLC7A11 level measured at 4 to 10 uM for 24 hrs by Western blotting analysis; format: functional, cell-based; details: dose 4-10 µM
[9] = Toxicity in immunocompetent C57BL/6J mouse allografted with B16-F10 cells assessed as tissue damage in heart administered at 30 mg/kg, ip daily for 14 days by hematoxylin and eosin staining analysis; format: organism-based; details: in vivo, 336 h, time 14 day
[10] = Toxicity in immunocompetent C57BL/6J mouse allografted with B16-F10 cells assessed as change in body weight administered at 30 mg/kg, ip daily for 14 days measured every 3 days; format: organism-based; details: in vivo, 336 h, time 14 day
HeLa [11] = assay: Induction of ferroptosis in human HeLa cells assessed as reduction of mitochondrion volume measured at 6 uM for 24 hrs by transmission electron microscopic analysis; format: functional, cell-based
HeLa [12] = assay: Induction of apoptosis in human HeLa cells assessed as late apoptotic cells preincubated with PFTalpha followed by compound addition at 10 uM for 24 hrs measured by annexin V-PI staining based FITC analysis (reference value: 2.3%); format: functional
HeLa [13] = assay: Induction of apoptosis in human HeLa cells assessed as necrotic cells incubated at 10 uM for 24 hrs measured by annexin V-PI staining based FITC analysis (reference value: 0.79%); format: functional
HeLa [14] = assay: Induction of apoptosis in human HeLa cells assessed as early apoptotic cells preincubated with PFTalpha followed by compound addition at 10 uM for 24 hrs measured by annexin V-PI staining based FITC analysis (reference value: 2.72%); format: functional
HeLa [15] = assay: Induction of apoptosis in human HeLa cells assessed as early apoptotic cells incubated at 4 uM for 24 hrs measured by annexin V-PI staining based FITC analysis (reference value: 3.59%); format: functional
HeLa [16] = assay: Induction of apoptosis in human HeLa cells assessed as necrotic cells preincubated with PFTalpha followed by compound addition at 10 uM for 24 hrs measured by annexin V-PI staining based FITC analysis (reference value: 0.79%); format: functional
HeLa [17] = assay: Induction of apoptosis in human HeLa cells assessed as necrotic cells incubated at 10 uM for 24 hrs measured by annexin V-PI staining based FITC analysis (reference value: 0.70%); format: functional
HeLa [18] = assay: Induction of apoptosis in human HeLa cells assessed as late apoptotic cells incubated at 10 uM for 24 hrs measured by annexin V-PI staining based FITC analysis (reference value: 2.3%); format: functional
B16-F10 [19] = assay: Induction of ferroptosis in mouse B16-F10 cells assessed as increase in ACSL4 level measured at 4 to 10 uM by Western blotting analysis; format: functional, cell-based; details: dose 4-10 µM
HeLa [20] = assay: Induction of apoptosis in human HeLa cells assessed as early apoptotic cells incubated at 8 uM for 24 hrs measured by annexin V-PI staining based FITC analysis (reference value: 3.59%); format: functional
[21] = Toxicity in immunocompetent C57BL/6J mouse allografted with B16-F10 cells assessed as change of organ index in kidney administered at 30 mg/kg, ip daily for 14 days by hematoxylin and eosin staining analysis; format: organism-based; details: in vivo, 336 h, time 14 day
HeLa [22] = assay: Induction of ROS generation in human HeLa cells assessed as increase in ROS level at 20 uM incubated for 1 hrs (reference value: 37.8%); format: functional
HeLa [23] = assay: Induction of apoptosis in human HeLa cells assessed as necrotic cells incubated at 10 uM for 24 hrs measured by annexin V-PI staining based FITC analysis (reference value: 1.6%); format: functional
HeLa [24] = assay: Induction of ROS generation in human HeLa cells assessed as increase in ROS level at 10 uM incubated for 0.5 hrs (reference value: 37.8%); format: functional
HeLa [25] = assay: Induction of apoptosis in human HeLa cells assessed as early apoptotic cells incubated at 6 uM for 24 hrs measured by annexin V-PI staining based FITC analysis (reference value: 3.94%); format: functional
HeLa [26] = assay: Induction of apoptosis in human HeLa cells assessed as early apoptotic cells preincubated with PFTalpha followed by compound addition at 10 uM for 24 hrs measured by annexin V-PI staining based FITC analysis (reference value: 3.28%); format: functional
HeLa [27] = assay: Induction of apoptosis in human HeLa cells assessed as late apoptotic cells incubated at 10 uM for 24 hrs measured by annexin V-PI staining based FITC analysis (reference value: 1.54%); format: functional
HeLa [28] = assay: Induction of apoptosis in human HeLa cells assessed as early apoptotic cells incubated at 4 uM for 24 hrs measured by annexin V-PI staining based FITC analysis (reference value: 3.94%); format: functional
HeLa [29] = assay: Induction of apoptosis in human HeLa cells assessed as necrotic cells incubated at 4 uM for 24 hrs measured by annexin V-PI staining based FITC analysis (reference value: 0.58%); format: functional
HeLa [30] = assay: Induction of ROS generation in human HeLa cells assessed as increase in ROS level at 20 uM incubated for 0.5 hrs (reference value: 37.8%); format: functional
HeLa [31] = assay: Induction of apoptosis in human HeLa cells assessed as late apoptotic cells preincubated with PFTalpha followed by compound addition at 10 uM for 24 hrs measured by annexin V-PI staining based FITC analysis (reference value: 3.45%); format: functional
HeLa [32] = assay: Induction of apoptosis in human HeLa cells assessed as early apoptotic cells incubated at 10 uM for 24 hrs measured by annexin V-PI staining based FITC analysis (reference value: 3.94%); format: functional
HeLa [33] = assay: Induction of apoptosis in human HeLa cells assessed as necrotic cells preincubated with PFTalpha followed by compound addition at 10 uM for 24 hrs measured by annexin V-PI staining based FITC analysis (reference value: 1.6%); format: functional
HeLa [34] = assay: Induction of apoptosis in human HeLa cells assessed as late apoptotic cells incubated at 8 uM for 24 hrs measured by annexin V-PI staining based FITC analysis (reference value: 1.54%); format: functional

With `CCC/C=C/C=C/C(=O)O[C@@H]1C[C@H]2[C@@H](CCCC[C@H](O)CCC)CCC[C@H]2N[C@H]1C` as the compound, how does the pIC50 (B16-F10 [1]) read?
Its pIC50 is 5.50.

What about the Activity (HeLa [2]) of the same compound?
The Activity was “Active”.

What about the Activity [3] of the same compound?
Its Activity is “Non-Toxic”.

What about the Activity (HeLa [4]) of the same compound?
Its Activity is 2.28%.

And the Activity [5]?
Its Activity is “Non-Toxic”.

What about the Activity (HeLa [6]) of the same compound?
The Activity was 1.14%.

And the Activity (HeLa [7])?
The Activity was “Active”.

What about the Activity (HeLa [8]) of the same compound?
Its Activity is “Active”.

And the Activity [9]?
Its Activity is “Non-Toxic”.

And the Activity [10]?
The Activity was “Non-Toxic”.

And the Activity (HeLa [11])?
The Activity was “Active”.

And the Activity (HeLa [12])?
Its Activity is 19.5%.

What about the Activity (HeLa [13]) of the same compound?
The Activity was 2.34%.

What about the Activity (HeLa [14]) of the same compound?
Its Activity is 30.5%.

What about the Activity (HeLa [15]) of the same compound?
The Activity was 4.56%.

And the Activity (HeLa [16])?
Its Activity is 3.94%.

What about the Activity (HeLa [17]) of the same compound?
The Activity was 2.13%.

And the Activity (HeLa [18])?
The Activity was 45.3%.

And the Activity (B16-F10 [19])?
Its Activity is “Active”.

What about the Activity (HeLa [20]) of the same compound?
Its Activity is 21.1%.

And the Activity [21]?
The Activity was “Non-Toxic”.

Which Activity (HeLa [22]) does the source give for `CCCCC/C=C/C(=O)O[C@@H]1C[C@H]2[C@@H](CCCC[C@H](O)CCC)CCC[C@H]2N[C@H]1C` here?
Its Activity is 86.9%.

And the Activity (HeLa [23])?
The Activity was 5.06%.

What about the Activity (HeLa [24]) of the same compound?
Its Activity is 55.1%.

And the Activity (HeLa [25])?
The Activity was 30.6%.

What about the Activity (HeLa [26]) of the same compound?
Its Activity is 31.9%.

What about the Activity (HeLa [27]) of the same compound?
Its Activity is 27.3%.

And the Activity (HeLa [28])?
The Activity was 5.32%.

What about the Activity (HeLa [29]) of the same compound?
The Activity was 0.53%.

What about the Activity (HeLa [30]) of the same compound?
The Activity was 80.6%.

And the Activity (HeLa [31])?
Its Activity is 26.9%.

What about the Activity (HeLa [32]) of the same compound?
Its Activity is 22.7%.

What about the Activity (HeLa [33]) of the same compound?
Its Activity is 4.34%.

What about the Activity (HeLa [34]) of the same compound?
The Activity was 23.7%.
